Ends that are not written are not given here.
Tests used:
[1] = system: methicillin resistant Staphylococcus aureus (MRSA) biofilm; conditions: approximate peptide concentration […] (around 3 μg/ml); compared to untreated samples
Outline: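 Static biofilm assay: 1/100 dilutions of overnight cultures grown in BM2 medium (pH 7, glucose, Casamino Acids) or Luria Broth with peptide added at time zero. After 22–46 h, adherent biofilm was stained with crystal violet and read at 595 nm. Some peptides were also tested on K. pneumoniae under flow in a Bioflux system.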

[2] = system: human peripheral blood mononuclear cells (MCP-1); test: SPOT-synthesized derivative screen: production of chemokine MCP-1; assay type: cell-based; conditions: Table 12, No LPS, human PBMC, peptide at ~18-24 μM; for MCP1: background subtracted 139 (HH2 derivatives), 170 (1018 derivatives), 242 (1002 and hybrid peptides) pg/ml
Outline: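 PBMC from heparinized healthy-donor venous blood, Ficoll-separated, cultured at 0.75 to 1×10^6 cells/ml, 37 °C, 5% CO2, under the treatment regimens. MCP-1 in cell-free supernatants measured by capture ELISA.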

[3] = system: LPS-stimulated human peripheral blood mononuclear cells (IL1-β); assay type: cell-based; conditions: Table 12, cells stimulated with 10 ng/ml LPS; for IL1β Production: LPS alone 1313 (HH2 derivatives), 1927 (1018 derivatives), 2455 (1002 and hybrid peptides) pg/ml

| Substance | % Biofilm inhibition [1] | Fold increase in MCP1 cf. untreated cells [2] | MCP1 [2] | Fold change in IL1β relative to no peptide LPS stimulated cells [3] | IL1β Production [3] |
| --- | --- | --- | --- | --- | --- |
| HH2-Q4: single substituted HH2 peptide (VQLQIRVAVIRA-NH2) | 45% | 2.4 | 246 pg/mL | 0.62 | 817 pg/mL |
| 1002-I5: single substituted 1002 peptide (VQRWIIVWRIRK-NH2) [Peptide 1002-I5] | 84% | 24.2 | 5633.1 pg/mL | 0.08 | 186 pg/mL |
| 1018-A10: single substituted 1018 peptide (VRLIVAVRIARR-NH2) [Peptide 1018-A10] | 54% | 1.0 | 7 pg/mL | 0.28 | 369 pg/mL |
| 1018-G2: single substituted 1018 peptide (VGLIVAVRIWRR-NH2) [Peptide 1018-G2] | 59% | 2.6 | 267 pg/mL | 0.10 | 127 pg/mL |
| 1002-G11: single substituted 1002 peptide (VQRWLIVWRIGK-NH2) [Peptide 1002-G11] | 60% | 2.9 | 465.0 pg/mL | 0.05 | 127 pg/mL |
| 1002-Q3: single substituted 1002 peptide (VQQWLIVWRIRK-NH2) [Peptide 1002-Q3] | 70% | 2.4 | 343.8 pg/mL | 0.05 | 127 pg/mL |
| 1018-L1: single substituted 1018 peptide (LRLIVAVRIWRR-NH2) [Peptide 1018-L1] | 72% | 4.1 | 531 pg/mL | 0.21 | 282 pg/mL |
| HH2-L11: single substituted HH2 peptide (VQLRIRVAVILA-NH2) | 47% | 40 | 6545 pg/mL | 1.09 | 1425 pg/mL |
| 1018-G10: single substituted 1018 peptide (VRLIVAVRIGRR-NH2) [Peptide 1018-G10] | 55% | 0.8 | -41 pg/mL | 0.46 | 605 pg/mL |
| HH2-G2: single substituted HH2 peptide (VGLRIRVAVIRA-NH2) | 66% | 3.8 | 471 pg/mL | 1.07 | 1400 pg/mL |
| 1002-V12: single substituted 1002 peptide (VQRWLIVWRIRV-NH2) [Peptide 1002-V12] | 67% | 1.3 | 76.4 pg/mL | 0.05 | 127 pg/mL |
| 1018-R4: single substituted 1018 peptide (VRLRVAVRIWRR-NH2) [Peptide 1018-R4] | 58% | 0.6 | -65 pg/mL | 0.47 | 615 pg/mL |
| 1018-Q11: single substituted 1018 peptide (VRLIVAVRIWQR-NH2) [Peptide 1018-Q11] | 51% | 11 | 1773 pg/mL | 1.24 | 1625 pg/mL |
| 1018-A11: single substituted 1018 peptide (VRLIVAVRIWAR-NH2) [Peptide 1018-A11] | 59% | 0.6 | -65 pg/mL | 0.87 | 1148 pg/mL |
| HH2-G8: single substituted HH2 peptide (VQLRIRVGVIRA-NH2) | 54% | 1.9 | 157 pg/mL | 1.02 | 1344 pg/mL |
| HH2-K12: single substituted HH2 peptide (VQLRIRVAVIRK-NH2) | 67% | 15 | 2329 pg/mL | 0.92 | 1203 pg/mL |
| HH2-Q8: single substituted HH2 peptide (VQLRIRVQVIRA-NH2) | 65% | 9.4 | 1421 pg/mL | 0.97 | 1279 pg/mL |
| HH2-K10: single substituted HH2 peptide (VQLRIRVAVKRA-NH2) | 68% | 5.7 | 797 pg/mL | 1.43 | 1878 pg/mL |
| 1002-R1: single substituted 1002 peptide (RQRWLIVWRIRK-NH2) [Peptide 1002-R1] | 67% | 5.3 | 1043.2 pg/mL | 0.05 | 127 pg/mL |
| 1002-V4: single substituted 1002 peptide (VQRVLIVWRIRK-NH2) [Peptide 1002-V4] | 69% | 10.5 | 2300.2 pg/mL | 0.08 | 190 pg/mL |
| 1002-V9: single substituted 1002 peptide (VQRWLIVWVIRK-NH2) [Peptide 1002-V9] | 47% | 1.5 | 131.8 pg/mL | 0.05 | 134 pg/mL |
| 1018-I1: single substituted 1018 peptide (IRLIVAVRIWRR-NH2) [Peptide 1018-I1] | 56% | 18 | 2873 pg/mL | 0.11 | 138 pg/mL |
| 1018-L11: single substituted 1018 peptide (VRLIVAVRIWLR-NH2) [Peptide 1018-L11] | 4% | 1.7 | 118 pg/mL | 1.12 | 1467 pg/mL |
| 1002-L11: single substituted 1002 peptide (VQRWLIVWRILK-NH2) [Peptide 1002-L11] | 61% | 9.5 | 2048.4 pg/mL | 0.05 | 127 pg/mL |
| 1002-K6: single substituted 1002 peptide (VQRWLKVWRIRK-NH2) [Peptide 1002-K6] | 2% | 0.9 | -36.2 pg/mL | 0.33 | 808 pg/mL |

From patent publication US20190315823A1, “SMALL CATIONIC ANTI-BIOFILM AND IDR PEPTIDES” (priority 2013, published 2019)
